From US10806725B2, “Small molecule inhibitors of XBP1 splicing” (GEORGETOWN UNIVERSITY, priority 2011, dated 2020)

Assays:
Format in all cases: cell-based
[1] = test system: MCF7/LCC9 antiestrogen-resistant breast cancer cells; experiment: Crystal violet cell proliferation assay, MCF7/LCC9 cells (combination with antiestrogens); settings: 10 μM Compound Sd-6 combined with 100 nM Faslodex/ICI 182,780 (ICI), 72 h, >1.0 indicates synergistic interaction
Protocol: (§1) Compound Sd-6 was tested in a dose-response assay using different breast cancer cell lines, including MCF7/LCC1, MCF7/LCC9, T47D, and MCF-7. MCF7/LCC1 is an ERα-positive estrogen-independent, antiestrogen-responsive breast cancer cell line. MCF7/LCC9 is an ERα-positive estrogen-independent, antiestrogen-resistant breast cancer cell line. MCF- is an ERα-positive estrogen-dependent, antiestrogen-responsive breast cancer cell line. Cells were first plated in 96-well plastic tissue culture plates (10,000 cells per well). The cells were treated with 500 nM of Compound Sd-6 or the vehicle alone (DMSO) for 48 h. Following treatment, the cells were washed with PBS, stained with a crystal violet staining solution, and allowed to dry for 48-72 hrs. After drying, sodium citrate buffer was added to each well and allowed to incubate for 5 min at room temperature. The absorbance was measured at 450 nm using a microplate reader (Biorad; Hercules, Calif.).
(§2) Compound Sd-6 was tested in a dose-response assay using MCF7/LCC1 antiestrogen-responsive breast cancer cells and MCF7/LCC9 antiestrogen-resistant breast cancer cells. Cells were first plated in 96-well plastic tissue culture plates (10,000 cells per well). […] Following treatment, cell proliferation was determined using a crystal violet assay as described above. […]

[2] = test system: MCF 10A, a non-breast cancer cell line; experiment: Crystal violet dose-response cell proliferation assay, MCF 10A control cells; settings: MCF 10A cells; 10 μM, 25 μM or 50 μM for 72 h
Protocol: as §1
Compound Sd-6 was tested in a dose-response assay using different breast cancer cell lines, including MCF7/LCC1, MCF7/LCC9, T47D, MCF-7, MCF-7/RR, LY2, and MDA-MB-231. MCF 10A, a non-breast cancer cell line, served as the control. The cells were first plated in 96-well plastic tissue culture plates (10,000 cells per well). […] Following treatment, cell proliferation was determined using a crystal violet assay as described in Example 1.

[3] = test system: MCF7/LCC1 antiestrogen-responsive breast cancer cells; experiment: Crystal violet cell proliferation assay, MCF7/LCC1 cells (combination with antiestrogens); settings: 72 h, >1.0 indicates synergistic interaction
Protocol: as §1, §2

[4] = test system: antiestrogen resistant LCC9 cells; experiment: Crystal violet cell viability assay, antiestrogen resistant LCC9 cells; settings: 72 hours, normalized to vehicle-treated cells, compared with NPPTA
Protocol: To measure cell viability, antiestrogen resistant LCC9 cells were plated in 96-well plastic tissue culture plates at a density of 5×10^3 cells/well. Twenty-four hours after plating, cells were treated with 3-naphthoyl-1,1,1-trifluoroacetone (NPPTA) and the analogs (i.e., Compound JS-011, Compound JS-012, Compound JS-013, Compound JS-014, Compound JS-015, Compound JS-020). After 72 hours, the cell culture media was removed and plates were stained with […] of a solution containing 0.5% crystal violet and 25% methanol, rinsed with deionized water, dried overnight, and resuspended in […] citrate buffer (0.1 M sodium citrate in 50% ethanol) to assess plating efficiency. Intensity of crystal violet staining, assessed at 570 nm and quantified using a Vmax Kinetic Microplate Reader and Softmax software (Molecular Devices Corp., Menlo Park, Calif.), was directly proportional to cell number. Data were normalized to vehicle-treated cells and are presented in FIG. 8 as the mean±SE from representative experiments.

| Compound | RI value (Sexp/Sobs) for inhibition of cell proliferation [1] | Response of relative cell proliferation to compound [2] | RI value (Sexp/Sobs) for inhibition of cell proliferation ([3]; 10 μM Compound Sd-6 combined with 100 nM Faslodex/ICI 182,780 (ICI)) | RI value (Sexp/Sobs) for inhibition of cell proliferation ([3]; 10 μM Compound Sd-6 combined with 100 nM Tamoxifen (TAM)) | Inhibition of LCC9 cells (cell viability, crystal violet) [4] |
| --- | --- | --- | --- | --- | --- |
| O=C(CSc1nc(-c2cccnc2)n[nH]1)Nc1ccc(Oc2ccccc2)cc1 [Compound Sd-6] | 1.27 | did not respond | 1.44 | 1.82 |  |
| O=C(CSc1nc(-c2cccnc2)n[nH]1)Nc1ccc(Oc2ccc(Cl)cc2)cc1 [JS-014] |  |  |  |  | effective, and more potent than NPPTA |
| O=C(CSc1nc(-c2cccnc2)n[nH]1)Nc1ccc(Oc2ccc(C(F)(F)F)cc2)cc1 [JS-020] |  |  |  |  | effective, and more potent than NPPTA |
